This passage reports EC50 results from patent publication US20100173935A1, “Muscarinic Receptor Agonists that are Effective in the Treatment of Pain, Alzheimer's Disease and Schizophrenia” (AstraZeneca AB, priority 2006, published 2010).

One assay concerns the target T1, human M4 receptor (Homo sapiens, UniProt P08173).
T1 construct: purchased Perkin-Elmer RBHM4M; host or cells: CHO cell membranes
T1 sequence (P08173 1-479): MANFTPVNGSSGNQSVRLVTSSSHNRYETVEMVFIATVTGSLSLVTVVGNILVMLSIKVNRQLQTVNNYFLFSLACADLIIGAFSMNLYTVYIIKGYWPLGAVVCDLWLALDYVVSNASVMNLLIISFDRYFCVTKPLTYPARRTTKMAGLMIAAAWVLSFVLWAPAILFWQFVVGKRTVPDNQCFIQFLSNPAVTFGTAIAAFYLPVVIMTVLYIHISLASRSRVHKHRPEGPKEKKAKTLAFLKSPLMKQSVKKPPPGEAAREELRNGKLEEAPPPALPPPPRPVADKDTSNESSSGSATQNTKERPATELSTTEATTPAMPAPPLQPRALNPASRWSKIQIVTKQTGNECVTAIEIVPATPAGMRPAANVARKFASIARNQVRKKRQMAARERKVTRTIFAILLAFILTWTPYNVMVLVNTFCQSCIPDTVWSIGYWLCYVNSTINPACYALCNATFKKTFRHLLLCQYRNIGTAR
Description: hM4 receptor GTPγS binding. It is filed as biochemical. As to the method: Membranes produced from Chinese hamster ovary cells (CHO) expressing the cloned human M4 receptor (human Muscarinic receptor subtype 4, gene bank access NM_000741), were obtained from Perkin-Elmer (RBHM4M). The membranes were thawed at 37° C., passed 3 times through a 23-gauge blunt-end needle, diluted in the GTPγS binding buffer (50 mM Hepes, 20 mM NaOH, 100 mM NaCl, 1 mM EDTA, 5 mM MgCl2, pH 7.4, 100 μM DTT). The EC50, IC50 and Emax of the compounds of the invention were evaluated from 10-point dose-response curves (three fold concentration range) done in 60 μl in 384-well non-specific binding surface plate (Corning). Ten microliters from the dose-response curves plate (5× concentration) were transferred to another 384 well plate containing the following: 10 μg of hM4 membranes, 500 μg of Flashblue beads (Perkin-Elmer) and GDP in a 25 μl volume. An additional 15 μl containing 3.3× (55000 dpm) of GTPγS (0.4 nM final) were added to the wells resulting in a total well volume of […]. Basal and maximal stimulated [^35S]GTPγS binding were determined in absence and presence of 30 μM of acetylcholine agonist. The membranes/beads mix were pre-incubated for 15 minutes at room temperature with 40 μM GDP prior to distribution In plates (20 μM final). The reversal of acetylcholine-induced stimulation (10 μM final) of [^35S]GTPγS binding was used to assay the antagonist properties (IC50) of the compounds. The plates were incubated for 60 minutes at room temperature with shaking, then centrifuged at 2000 rpm for 5 minutes. The radioactivity (cpm) were counted in a Trilux (Perkin-Elmer).
Values of EC50, IC50 and Emax were obtained using sigmoidal fits of a non-linear curve-fitting program (XLfit version 5.0.6 from ID Business Solutions Limited, Guildford, UK) of percent stimulated [^35S]GTRγS binding vs. log(molar ligand).
All EC50 and IC50 values are reported as arithmetic means±standard error of mean of ‘n’ independent experiments. […] The IC50 was the concentration of the compound of the invention at which 50% inhibition of acetylcholine [^35S]GTRγS binding stimulation has been observed.
(In general: GTPγS resists hydrolysis and so accumulates on activated G proteins.)

The target in assay [1] is T2, hM3 (human Muscarinic receptor subtype 3) (Homo sapiens, UniProt P20309).
T2 construct: expressed in transfected cells; host or cells: CHO cells (ATCC)
T2 sequence (P20309 whole entry): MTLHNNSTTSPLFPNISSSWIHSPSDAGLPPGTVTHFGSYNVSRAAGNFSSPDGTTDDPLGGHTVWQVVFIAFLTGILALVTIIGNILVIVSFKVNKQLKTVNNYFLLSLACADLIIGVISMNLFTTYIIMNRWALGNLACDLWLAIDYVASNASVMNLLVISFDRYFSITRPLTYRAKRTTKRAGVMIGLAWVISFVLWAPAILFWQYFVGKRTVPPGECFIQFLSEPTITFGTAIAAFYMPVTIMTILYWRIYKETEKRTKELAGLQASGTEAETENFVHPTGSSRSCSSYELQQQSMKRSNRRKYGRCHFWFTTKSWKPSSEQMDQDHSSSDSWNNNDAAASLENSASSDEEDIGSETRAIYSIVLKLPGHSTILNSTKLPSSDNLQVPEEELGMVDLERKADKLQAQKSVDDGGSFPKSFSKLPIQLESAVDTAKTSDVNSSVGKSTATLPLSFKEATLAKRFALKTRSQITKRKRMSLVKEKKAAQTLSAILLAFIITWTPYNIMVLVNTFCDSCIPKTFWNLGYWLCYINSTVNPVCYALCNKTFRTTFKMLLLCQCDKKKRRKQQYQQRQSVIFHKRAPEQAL
The assay is described as follows: Human M3 calcium mobilization FLIPR assay. The assay is classed as cell-based. The conditions noted are these: CHO cells expressing hM3, Ca2+ release. As for the experimental part: The compound activity in the present invention (EC50 or IC50) was measured using a 384 plate-based imaging assay that monitors drug induced intracellular Ca^2+ release in whole cells. Activation of hM1 (human Muscarinic receptor subtype 1, gene bank access NM_000738), rM1 (rat Muscarinic receptor subtype 1, gene bank access NM_080773), hM3 (human Muscarinic receptor subtype 3, gene bank access NM_000740NM_000740) and hM5 (human Muscarinic receptor subtype 5, gene bank access NM_0121258), receptors expressed in CHO cells (chinese hamster ovary cells, ATCC) was quantified in a Molecular Devices FLIPR II™ instrument as an increase in fluorescent signal. Inhibition of hM3 and hM5 by compounds was determined by the decrease in fluorescent signal in response to 20 nM carbachol activation.
CHO cells were plated in 384-black polylysine coated plate (Costar) at 8000 cells/well/50 μl for 24 hours or 4000 cells/well for 48 hours in a humidified incubator (5% CO2 and 37° C.) in DMEM/F12 medium without selection agent. Prior to the experiment the cell culture medium was removed from the plates by inversion. A loading solution of 30 μl of Hank's balanced salt solution, 10 mM Hepes and 2.5 mM Probenicid at Ph 7.4 (Cat no. 311-520-VL, Wisent) with 2 μM calcium indicator dye (FLUO-3AM, Molecular Probes F14202) was added to each well. Plates were incubated at 37° C. for 60 minutes prior to start the experiment. The incubation was terminated by washing the cells four times in assay buffer, leaving a residual 25 μl buffer per well. Cell plates were then transferred to the FLIPR, ready for compound additions.
The day of experiment, carbachol and compounds were diluted in three-fold concentration range (10 points serial dilution) for addition by FLIPR instrument. For all calcium assays, a baseline reading was taken for 30 seconds followed by the addition of 12.5 μl (25 μl for hM1 and rM1) of compounds, resulting in a total well volume of 37.5 μl (50 μl for hM1 and rM1). Data were collected every 1.6 seconds for 300 seconds. For hM3 and hM5 an additional 12.5 μl of carbachol (20 nM final) was added at 300 seconds. After this addition of carbachol (producing a final volume of 50 μl), the FLIPR continued to collect data every 2 seconds for 240 seconds. The fluorescence emission was read using filter 1 (emission 520-545 nm) by the FLIPR on board CCD camera.
Calcium mobilization output data were calculated as the maximal relative fluorescence unit (RFU) minus the minal value for both compound and agonist reading frame (except for hM1 and rM1 using only the maximal RFU). Data were analyzed using sigmoidal fits of a non-linear curve-fitting program (XLfit version 5.0.6 from ID Business Solutions Limited, Guildford, UK). All EC50 and IC50 values are reported as arithmetic means±standard error of mean of ‘n’ independent experiments.

The mark [2] stands for this setting: CHO membranes expressing cloned human M4, [35S]GTPγS binding, read-out: hM4 EC50.

Like-named read-outs stand apart in the source and are kept apart here.

On human M4 receptor, `CCOC(=O)N1CC[C@H](N2CCC(n3c(=O)[nH]c4ccc(Cl)cc43)CC2)C1` [Example 42, Ethyl (3S)-3-[4-(6-chloro-2-oxo-2,3-dihydro-1H-benzimidazol-1-yl)piperidin-1-yl]pyrrolidine-1-carboxylate] yielded an EC50 of no less than 10 µM. As for `O=C1CCCN1CCC(=O)N1CC[C@H](N2CCC(N3C(=O)Cc4ccccc43)CC2)C1` [Example 29, 1-(1-{(3S)-1-[3-(2-oxopyrrolidin-1-yl)propanoyl]pyrrolidin-3-yl}piperidin-4-yl)-1,3-dihydro-2H-indol-2-one], the EC50 on human M4 receptor was greater than 30 µM; in assay [1] it was 2.5 µM. On to `CCOC(=O)N1CC[C@@H](N2CCC(n3c(=O)[nH]c4ccccc43)CC2)C1` [Example 16, Ethyl (3R)-3-[4-(2-oxo-2,3-dihydro-1H-benzimidazol-1-yl)piperidin-1-yl]pyrrolidine-1-carboxylate], for which the EC50 is greater than 30 µM at human M4 receptor (setting [2]) and greater than 40 µM in assay [1].

With `CCOC(=O)N1CC[C@H](N2CCC(n3c(=O)[nH]c4ccc(C#N)cc43)CC2)C1` [Example 41, Ethyl (3S)-3-[4-(6-cyano-2-oxo-2,3-dihydro-1H-benzimidazol-1-yl)piperidin-1-yl]pyrrolidine-1-carboxylate], the figures for the EC50 (on human M4 receptor; in assay [1]) were greater than 30 µM and 2.68 µM, respectively. As to `Cn1c(=O)n(C2CCN([C@H]3CCN(C(=O)CCN4CCCC4=O)C3)CC2)c2ccccc21` [Example 24, 1-methyl-3-(1-{(3S)-1-[3-(2-oxopyrrolidin-1-yl)propanoyl]pyrrolidin-3-yl}piperidin-4-yl)-1,3-dihydro-2H-benzimidazol-2-one], the results for the EC50 (at human M4 receptor (setting [2]); in assay [1]) were greater than 30 µM and greater than 40 µM, respectively. In turn, `O=C1CCCN1CCCC(=O)N1CC[C@H](N2CCC(n3c(=O)[nH]c4ccccc43)CC2)C1` [Example 22, 1-(1-{(3S)-1-[4-(2-oxopyrrolidin-1-yl)butanoyl]pyrrolidin-3-yl}piperidin-4-yl)-1,3-dihydro-2H-benzimidazol-2-one] registered an EC50 on human M4 receptor greater than 30 µM. `CCOC(=O)N1CC[C@H](N2CCC(n3c(=O)[nH]c4ccc(F)cc43)CC2)C1` (single isomer, unassigned) [Example 35]: the EC50 on human M4 receptor was greater than 30 µM; in assay [1], 5.96 µM. As to `CCOC(=O)N1CCC(N2CCC(C3C(=O)Nc4ccccc43)CC2)C1` (centres unmarked) [Example 13, Ethyl 3-[4-(2-oxo-2,3-dihydro-1H-indol-3-yl)piperidin-1-yl]pyrrolidine-1-carboxylate], the concentration for a half-maximal effect (EC50) on human M4 receptor (setting [2]) was greater than 30 µM; in assay [1] it was greater than 40 µM. In the case of `CCOC(=O)N1CC[C@H](N2CCC(N3C(=O)Cc4ccccc43)CC2)C1` [Example 26, Ethyl (3S)-3-[4-(2-oxo-2,3-dihydro-1H-indol-1-yl)piperidin-1-yl]pyrrolidine-1-carboxylate], the values for the EC50 (on human M4 receptor; in assay [1]) were greater than 30 µM and greater than 40 µM, respectively.

With `CCOC(=O)N1CC[C@@H](N2CCC(n3c(=O)[nH]c4ccc(F)cc43)CC2)C1` (single isomer, unassigned) [Example 36], the values for the EC50 (at human M4 receptor; in assay [1]) were greater than 30 µM and greater than 40 µM, respectively. On the same counts, the results for `O=C(C1CCCC1)N1CC[C@H](N2CCC(n3c(=O)[nH]c4ccccc43)CC2)C1` [Example 19, 1-{1-[(3S)-1-(cyclopentylcarbonyl)pyrrolidin-3-yl]piperidin-4-yl}-1,3-dihydro-2H-benzimidazol-2-one] are 0.577 µM and 2.08 µM.

The term EC50 denotes the concentration at which the effect is half-maximal.
